This passage reports activity results from US20100168072A1, “Drug Combinations for the Treatment of Duchenne Muscular Dystrophy” (BIOMARIN IGA LIMITED, priority 2007, published 2010).

The assay has as its system Utrophin A promoter linked to a luciferase reporter gene (H2K/mdx/Utro A reporter cell line). Nature of the assay: Luciferase reporter assay (murine H2K cells). To be noted: Mus musculus; final concentration of 10 μM; incubated for a further 48 hrs. In kind it is cell-based. Here is the method:
The cell line used for the screen is an immortalized mdx mouse H2K cell line that has been stably transfected with a plasmid containing ≈5 kb fragment of the Utrophin A promoter including the first untranslated […] linked to a luciferase reporter gene.
Under conditions of low temperature and interferon containing media, the cells remain as myoblasts. These are plated into 96 well plates and cultured in the presence of compound for three days. The level of luciferase is then determined by cell lysis and reading of the light output from the expressed luciferase gene utilising a plate luminometer.
The H2K/mdx/Utro A reporter cell line was passaged twice a week until ≦30% confluent. The cells were grown at 33° C. in the presence of 10% CO2
To remove the myoblasts for platting, they were incubated with Trypsin/EDTA until the monolayer started to detach.
• DMEM Gibco 41966 • 20% FCS • 1% Pen/Strep • 1% glutamine • 10 mls Chick embryo extract • Interferon(1276 905 Roche) Add fresh 10 μl/50 mls medium
The H2K/mdx/Utro A reporter cell line cells were plated out into 96 well plates (Falcon 353296, white opaque) at a density of approximately 5000 cells/well in 190 μl normal growth medium. The plates were then incubated at 33° C. in the presence of 10% CO2 for 24 hrs.
Compounds were dosed by adding 10 μl of diluted compound to each well giving a final concentration of 10 μM. The plates were then incubated for a further 48 hrs
Cells were then lysed in situ following the manufacture's protocols (Promega Steady-Glo Luciferase Assay System (E2520). Then counted for 10 seconds using a plate luminometer (Victor1420).
In general terms: Reporter assays use an easily measured gene product as a stand-in for the process of interest.

As for `Cc1cc2nn(-c3ccc(Cl)cc3)nc2cc1NC(=O)c1cccnc1` [Example 1, N-(2-(4-chlorophenyl)-6-methyl-2H-benzo[d][1,2,3]triazol-5-yl)nicotinamide], the activity at 10 µM was in the range of 301 to 400%.

In the case of `Cc1cc2nn(-c3ccc(Cl)cc3)nc2cc1NC(=O)c1ccncc1` [Example 2, N-(2-(4-chlorophenyl)-6-methyl-2H-benzo[d][1,2,3]triazol-5-yl)isonicotinamide], the activity at 10 µM lay within 201 to 300%.

Regarding `Cc1cc2nn(-c3ccc(Cl)cc3)nc2cc1NC(=O)c1ccccc1` [Example 3, N-(2-(4-chlorophenyl)-6-methyl-2H-benzo[d][1,2,3]triazol-5-yl)benzamide], the activity at 10 µM is below 200%.

As for `COc1ccc(C(=O)Nc2cc3nn(-c4ccc(Cl)cc4)nc3cc2C)cc1` [Example 4, N-(2-(4-chlorophenyl)-6-methyl-2H-benzo[d][1,2,3]triazol-5-yl)-4-methoxybenzamide], the activity at 10 µM is 201 to 300%.

In the case of `COc1ccccc1C(=O)Nc1cc2nn(-c3ccc(Cl)cc3)nc2cc1C` [Example 5, N-(2-(4-chlorophenyl)-6-methyl-2H-benzo[d][1,2,3]triazol-5-yl)-2-methoxybenzamide], the activity at 10 µM is below 200%.

Take `Cc1cc2nn(-c3ccc(Cl)cc3)nc2cc1NC(=O)c1cccs1` [Example 6, N-(2-(4-chlorophenyl)-6-methyl-2H-benzo[d][1,2,3]triazol-5-yl)thiophene-2-carboxamide]: the activity at 10 µM lay within 301 to 400%.

In the case of `CCC(=O)Nc1cc2nn(-c3ccc(Cl)cc3)nc2cc1C` [Example 7, N-(2-(4-chlorophenyl)-6-methyl-2H-benzo[d][1,2,3]triazol-5-yl)propionamide], the activity at 10 µM was below 200%.

`CCCC(=O)Nc1cc2nn(-c3ccc(Cl)cc3)nc2cc1C` [Example 8, N-(2-(4-chlorophenyl)-6-methyl-2H-benzo[d][1,2,3]triazol-5-yl)butyramide]: the activity at 10 µM lay within 201 to 300%.

Consider `CCCCC(=O)Nc1cc2nn(-c3ccc(Cl)cc3)nc2cc1C` [Example 9, N-(2-(4-chlorophenyl)-6-methyl-2H-benzo[d][1,2,3]triazol-5-yl)pentanamide], for which the activity at 10 µM lay within 201 to 300%.

On to `Cc1cc2nn(-c3ccc(Cl)cc3)nc2cc1NC(=O)C(C)C` [Example 10, N-(2-(4-chlorophenyl)-6-methyl-2H-benzo[d][1,2,3]triazol-5-yl)isobutyramide], for which the activity at 10 µM is 201 to 300%.

Take `Cc1cc2nn(-c3ccc(Cl)cc3)nc2cc1NC(=O)c1ccco1` [Example 11, N-(2-(4-chlorophenyl)-6-methyl-2H-benzo[d][1,2,3]triazol-5-yl)furan-2-carboxamide]: the activity at 10 µM was 201 to 300%.

For the compound `CCN(CC)c1ccc(-n2nc3cc(C)c(NC(=O)c4cccnc4)cc3n2)cc1` [Example 12, N-(2-(4-(diethylamino)phenyl)-6-methyl-2H-benzo[d][1,2,3]triazol-5-yl)nicotinamide], the activity at 10 µM lay in the range of 301 to 400%.

For `CCN(CC)c1ccc(-n2nc3cc(C)c(NC(=O)c4ccncc4)cc3n2)cc1` [Example 13, N-(2-(4-(diethylamino)phenyl)-6-methyl-2H-benzo[d][1,2,3]triazol-5-yl)isonicotinamide], the activity at 10 µM was in the range of 301 to 400%.

For `CCC(=O)Nc1cc2nn(-c3ccc(N(CC)CC)cc3)nc2cc1C` [Example 14, N-(2-(4-(diethylamino)phenyl)-6-methyl-2H-benzo[d][1,2,3]triazol-5-yl)propionamide], the activity at 10 µM was below 200%.

Consider `CCCC(=O)Nc1cc2nn(-c3ccc(N(CC)CC)cc3)nc2cc1C` [Example 15, N-(2-(4-(diethylamino)phenyl)-6-methyl-2H-benzo[d][1,2,3]triazol-5-yl)butyramide], for which the activity at 10 µM is below 200%.

As to `CCCCC(=O)Nc1cc2nn(-c3ccc(N(CC)CC)cc3)nc2cc1C` [Example 16, N-(2-(4-(diethylamino)phenyl)-6-methyl-2H-benzo[d][1,2,3]triazol-5-yl)pentanamide], the activity at 10 µM was below 200%.

In the case of `CCN(CC)c1ccc(-n2nc3cc(C)c(NC(=O)C(C)C)cc3n2)cc1` [Example 17, N-(2-(4-(diethylamino)phenyl)-6-methyl-2H-benzo[d][1,2,3]triazol-5-yl)isobutyramide], the activity at 10 µM was below 200%.

`CCN(CC)c1ccc(-n2nc3cc(C)c(NC(=O)c4ccco4)cc3n2)cc1` [Example 18, N-(2-(4-(diethylamino)phenyl)-6-methyl-2H-benzo[d][1,2,3]triazol-5-yl)furan-2-carboxamide]: the activity at 10 µM is below 200%.

Regarding `CCN(CC)c1ccc(-n2nc3ccc(N)cc3n2)cc1` [Example 19, 2-(4-(diethylamino)phenyl)-2H-benzo[d][1,2,3]triazol-5-amine], the activity at 10 µM was 301 to 400%.

In the case of `CCN(CC)c1ccc(-n2nc3ccc(NC(=O)c4cccnc4)cc3n2)cc1` [Example 20, N-(2-(4-(diethylamino)phenyl)-2H-benzo[d][1,2,3]triazol-5-yl)nicotinamide], the activity at 10 µM fell in the range of 201 to 300%.

Consider `CCN(CC)c1ccc(-n2nc3ccc(NC(=O)c4ccncc4)cc3n2)cc1` [Example 21, N-(2-(4-(diethylamino)phenyl)-2H-benzo[d][1,2,3]triazol-5-yl)isonicotinamide], for which the activity at 10 µM was below 200%.

Take `CCN(CC)c1ccc(-n2nc3ccc(NC(C)=O)cc3n2)cc1` [Example 22, N-(2-(4-(diethylamino)phenyl)-2H-benzo[d][1,2,3]triazol-5-yl)acetamide]: the activity at 10 µM was in the range of 201 to 300%.

In the case of `CCC(=O)Nc1ccc2nn(-c3ccc(N(CC)CC)cc3)nc2c1` [Example 23, N-(2-(4-(diethylamino)phenyl)-2H-benzo[d][1,2,3]triazol-5-yl)propionamide], the activity at 10 µM was below 200%.

As for `CCCC(=O)Nc1ccc2nn(-c3ccc(N(CC)CC)cc3)nc2c1` [Example 24, N-(2-(4-(diethylamino)phenyl)-2H-benzo[d][1,2,3]triazol-5-yl)butyramide], the activity at 10 µM is below 200%.

In the case of `CCCCC(=O)Nc1ccc2nn(-c3ccc(N(CC)CC)cc3)nc2c1` [Example 25, N-(2-(4-(diethylamino)phenyl)-2H-benzo[d][1,2,3]triazol-5-yl)pentanamide], the activity at 10 µM was below 200%.

Take `CCN(CC)c1ccc(-n2nc3ccc(NC(=O)C(C)C)cc3n2)cc1` [Example 26, N-(2-(4-(diethylamino)phenyl)-2H-benzo[d][1,2,3]triazol-5-yl)isobutyramide]: the activity at 10 µM was below 200%.

Consider `CCN(CC)c1ccc(-n2nc3ccc(NC(=O)c4ccco4)cc3n2)cc1` [Example 27, N-(2-(4-(diethylamino)phenyl)-2H-benzo[d][1,2,3]triazol-5-yl)furan-2-carboxamide], for which the activity at 10 µM is below 200%.

Regarding `CCN(CC)c1ccc(-n2nc3ccc(NC(=O)c4cccs4)cc3n2)cc1` [Example 28, N-(2-(4-(diethylamino)phenyl)-2H-benzo[d][1,2,3]triazol-5-yl)thiophene-2-carboxamide], the activity at 10 µM was below 200%.

On to `CCN(CC)c1ccc(-n2nc3ccc(NC(=O)c4ccccc4)cc3n2)cc1` [Example 29, N-(2-(4-(diethylamino)phenyl)-2H-benzo[d][1,2,3]triazol-5-yl)benzamide], for which the activity at 10 µM is below 200%.

For the compound `CCN(CC)c1ccc(-n2nc3ccc(NC(=O)c4ccc(OC)cc4)cc3n2)cc1` [Example 30, N-(2-(4-(diethylamino)phenyl)-2H-benzo[d][1,2,3]triazol-5-yl)-4-methoxybenzamide], the activity at 10 µM is below 200%.

With `CCN(CC)c1ccc(-n2nc3ccc(NC(=O)c4ccccc4OC)cc3n2)cc1` [Example 31, N-(2-(4-(diethylamino)phenyl)-2H-benzo[d][1,2,3]triazol-5-yl)-2-methoxybenzamide], the activity at 10 µM was below 200%.

Consider `CCN(CC)c1ccc(-n2nc3ccc(NC(=O)c4ccc(Cl)cc4)cc3n2)cc1` [Example 32, 4-chloro-N-(2-(4-(diethylamino)phenyl)-2H-benzo[d][1,2,3]triazol-5-yl)benzamide], for which the activity at 10 µM is below 200%.

In the case of `CCN(CC)c1ccc(-n2nc3ccc(NC(=O)c4ccc(N(C)C)cc4)cc3n2)cc1` [Example 33, N-(2-(4-(diethylamino)phenyl)-2H-benzo[d][1,2,3]triazol-5-yl)-4-(dimethylamino)benzamide], the activity at 10 µM is below 200%.

Turning to `Cc1cc2nn(-c3ccc(N4CCOCC4)cc3)nc2cc1N` [Example 34, 6-methyl-2-(4-morpholinophenyl)-2H-benzo[d][1,2,3]triazol-5-amine], the activity at 10 µM fell in the range of 201 to 300%.

In the case of `CCC(=O)Nc1ccc2nn(-c3ccc(Cl)cc3)nc2c1` [Example 35, N-(2-(4-chlorophenyl)-2H-benzo[d][1,2,3]triazol-5-yl)propionamide], the activity at 10 µM was above 401%.

For `CCCC(=O)Nc1ccc2nn(-c3ccc(Cl)cc3)nc2c1` [Example 36, N-(2-(4-chlorophenyl)-2H-benzo[d][1,2,3]triazol-5-yl)butyramide], the activity at 10 µM was in the range of 301 to 400%.

Regarding `CC(C)C(=O)Nc1ccc2nn(-c3ccc(Cl)cc3)nc2c1` [Example 37, N-(2-(4-chlorophenyl)-2H-benzo[d][1,2,3]triazol-5-yl)isobutyramide], the activity at 10 µM was above 401%.
